The values that follow are results of earlier work, collected in article PMC4492579, “Potent and Selective Triazole-Based Inhibitors of the Hypoxia-Inducible Factor Prolyl-Hydroxylases with Activity in the Murine Brain” (PLoS ONE, 2015).

The series concerns the target T1, JMJD1A (KDM3A) (Homo sapiens, UniProt Q9Y4C1).
T1 sequence (Q9Y4C1 1-1321): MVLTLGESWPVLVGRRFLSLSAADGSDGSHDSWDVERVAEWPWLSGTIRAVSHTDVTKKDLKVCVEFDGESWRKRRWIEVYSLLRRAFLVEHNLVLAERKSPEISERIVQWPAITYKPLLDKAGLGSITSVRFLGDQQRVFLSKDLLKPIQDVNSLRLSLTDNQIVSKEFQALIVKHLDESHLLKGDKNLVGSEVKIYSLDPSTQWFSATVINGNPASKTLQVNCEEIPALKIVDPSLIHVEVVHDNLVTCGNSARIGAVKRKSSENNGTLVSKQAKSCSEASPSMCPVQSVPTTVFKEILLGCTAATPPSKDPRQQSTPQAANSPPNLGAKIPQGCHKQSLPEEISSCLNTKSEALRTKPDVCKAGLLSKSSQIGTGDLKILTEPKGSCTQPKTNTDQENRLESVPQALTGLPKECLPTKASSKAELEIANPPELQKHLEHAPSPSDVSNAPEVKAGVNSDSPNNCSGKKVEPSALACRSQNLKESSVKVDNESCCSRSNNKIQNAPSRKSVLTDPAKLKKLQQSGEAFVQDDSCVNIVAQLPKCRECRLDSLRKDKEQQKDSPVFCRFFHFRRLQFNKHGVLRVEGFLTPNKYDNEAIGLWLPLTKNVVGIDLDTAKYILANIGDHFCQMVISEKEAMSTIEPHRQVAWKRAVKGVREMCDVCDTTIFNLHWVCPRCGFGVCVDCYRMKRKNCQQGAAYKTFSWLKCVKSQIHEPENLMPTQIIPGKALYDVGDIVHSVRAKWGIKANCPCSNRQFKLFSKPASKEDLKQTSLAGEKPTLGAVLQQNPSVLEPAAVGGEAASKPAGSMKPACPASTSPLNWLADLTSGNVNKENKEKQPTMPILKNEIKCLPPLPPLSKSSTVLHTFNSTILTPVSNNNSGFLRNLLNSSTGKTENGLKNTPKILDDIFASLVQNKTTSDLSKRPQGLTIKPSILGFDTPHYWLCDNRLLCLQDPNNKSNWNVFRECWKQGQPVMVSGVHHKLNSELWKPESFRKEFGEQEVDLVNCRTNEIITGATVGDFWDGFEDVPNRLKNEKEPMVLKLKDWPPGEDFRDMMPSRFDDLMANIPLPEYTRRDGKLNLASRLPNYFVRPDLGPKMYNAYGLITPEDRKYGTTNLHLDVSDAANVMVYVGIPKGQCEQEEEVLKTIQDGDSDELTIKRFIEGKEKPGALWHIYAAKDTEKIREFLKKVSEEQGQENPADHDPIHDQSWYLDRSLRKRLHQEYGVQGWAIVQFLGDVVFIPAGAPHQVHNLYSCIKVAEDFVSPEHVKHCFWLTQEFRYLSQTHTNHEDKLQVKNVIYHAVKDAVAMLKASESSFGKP
Details: method as in PMID 26682036. The conditions noted are these: cited from earlier work.

On to `O=C(O)CNC(=O)c1c(O)c2ccccc2n(Cc2ccccc2)c1=O` [IOX2], for which the concentration for half-maximal inhibition (IC50) (as a rule, the concentration that inhibits the measured activity by half) was greater than 100 µM.
